Experimental data published in PMC7026418, “The kinase polypharmacology landscape of clinical PARP inhibitors” (Scientific Reports, 2020).
Like-named read-outs stand apart in the source and are kept apart here. One block for each compound: values may come before it.

Experiments:
Assay in all cases: biochemical
Design in all cases: DiscoveRx KINOMEscan active site-directed competition binding; percent of control kinase bound to immobilised ligand
[1] = target: EGFR(L747-E749del, A750P) (Homo sapiens, UniProt P00533, A750P/DEL747-749)
EGFR(L747-E749del, A750P), sequence (P00533 with tags, fused parts or gaps DEL747-749/A750P): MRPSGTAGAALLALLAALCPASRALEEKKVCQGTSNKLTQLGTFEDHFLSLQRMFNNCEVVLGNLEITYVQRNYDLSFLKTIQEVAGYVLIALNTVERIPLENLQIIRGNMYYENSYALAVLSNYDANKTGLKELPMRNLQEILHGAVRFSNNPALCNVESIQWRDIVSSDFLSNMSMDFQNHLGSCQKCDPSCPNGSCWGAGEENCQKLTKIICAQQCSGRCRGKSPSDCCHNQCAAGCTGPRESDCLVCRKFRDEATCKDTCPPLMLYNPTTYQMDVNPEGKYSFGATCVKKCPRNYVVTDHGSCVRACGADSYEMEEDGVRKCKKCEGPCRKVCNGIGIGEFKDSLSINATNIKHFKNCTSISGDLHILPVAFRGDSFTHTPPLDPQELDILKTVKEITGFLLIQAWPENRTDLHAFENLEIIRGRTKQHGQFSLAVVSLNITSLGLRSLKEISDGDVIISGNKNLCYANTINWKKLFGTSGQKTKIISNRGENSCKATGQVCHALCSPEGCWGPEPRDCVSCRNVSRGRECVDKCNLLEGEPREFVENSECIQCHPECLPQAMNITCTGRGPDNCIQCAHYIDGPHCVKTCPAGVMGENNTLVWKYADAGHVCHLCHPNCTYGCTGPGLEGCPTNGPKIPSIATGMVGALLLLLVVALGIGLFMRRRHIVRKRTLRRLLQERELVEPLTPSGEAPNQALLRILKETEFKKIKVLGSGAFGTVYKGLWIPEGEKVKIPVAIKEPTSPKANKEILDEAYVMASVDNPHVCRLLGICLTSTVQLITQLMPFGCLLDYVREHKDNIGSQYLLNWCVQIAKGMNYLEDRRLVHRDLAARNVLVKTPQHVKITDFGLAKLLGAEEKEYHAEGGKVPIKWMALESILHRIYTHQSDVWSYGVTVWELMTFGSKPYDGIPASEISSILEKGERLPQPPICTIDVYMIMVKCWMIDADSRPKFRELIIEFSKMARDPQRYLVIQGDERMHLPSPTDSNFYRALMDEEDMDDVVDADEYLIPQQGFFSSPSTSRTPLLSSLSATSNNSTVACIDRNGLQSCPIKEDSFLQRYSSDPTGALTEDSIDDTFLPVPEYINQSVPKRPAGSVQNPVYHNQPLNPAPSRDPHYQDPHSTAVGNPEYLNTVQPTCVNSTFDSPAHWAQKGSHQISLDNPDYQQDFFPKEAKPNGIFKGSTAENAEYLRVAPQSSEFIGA

[2] = target: T1, TYK2(JH1domain-catalytic) (Homo sapiens, UniProt P29597)
T1 construct: JH1domain-catalytic

NEK6 = NEK6 (Homo sapiens, UniProt Q9HC98)
NEK6, sequence (Q9HC98 whole entry): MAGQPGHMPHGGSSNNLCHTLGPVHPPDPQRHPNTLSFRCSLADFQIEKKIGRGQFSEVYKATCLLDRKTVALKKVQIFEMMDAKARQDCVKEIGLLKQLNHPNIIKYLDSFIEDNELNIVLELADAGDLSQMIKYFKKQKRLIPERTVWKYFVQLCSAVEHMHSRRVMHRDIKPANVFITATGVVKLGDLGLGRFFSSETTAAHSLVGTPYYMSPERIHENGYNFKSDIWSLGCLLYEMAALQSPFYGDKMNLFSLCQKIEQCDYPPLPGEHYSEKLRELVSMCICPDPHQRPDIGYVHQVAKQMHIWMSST

MST1R = MST1R (Homo sapiens, UniProt Q04912)
MST1R, sequence (Q04912 whole entry): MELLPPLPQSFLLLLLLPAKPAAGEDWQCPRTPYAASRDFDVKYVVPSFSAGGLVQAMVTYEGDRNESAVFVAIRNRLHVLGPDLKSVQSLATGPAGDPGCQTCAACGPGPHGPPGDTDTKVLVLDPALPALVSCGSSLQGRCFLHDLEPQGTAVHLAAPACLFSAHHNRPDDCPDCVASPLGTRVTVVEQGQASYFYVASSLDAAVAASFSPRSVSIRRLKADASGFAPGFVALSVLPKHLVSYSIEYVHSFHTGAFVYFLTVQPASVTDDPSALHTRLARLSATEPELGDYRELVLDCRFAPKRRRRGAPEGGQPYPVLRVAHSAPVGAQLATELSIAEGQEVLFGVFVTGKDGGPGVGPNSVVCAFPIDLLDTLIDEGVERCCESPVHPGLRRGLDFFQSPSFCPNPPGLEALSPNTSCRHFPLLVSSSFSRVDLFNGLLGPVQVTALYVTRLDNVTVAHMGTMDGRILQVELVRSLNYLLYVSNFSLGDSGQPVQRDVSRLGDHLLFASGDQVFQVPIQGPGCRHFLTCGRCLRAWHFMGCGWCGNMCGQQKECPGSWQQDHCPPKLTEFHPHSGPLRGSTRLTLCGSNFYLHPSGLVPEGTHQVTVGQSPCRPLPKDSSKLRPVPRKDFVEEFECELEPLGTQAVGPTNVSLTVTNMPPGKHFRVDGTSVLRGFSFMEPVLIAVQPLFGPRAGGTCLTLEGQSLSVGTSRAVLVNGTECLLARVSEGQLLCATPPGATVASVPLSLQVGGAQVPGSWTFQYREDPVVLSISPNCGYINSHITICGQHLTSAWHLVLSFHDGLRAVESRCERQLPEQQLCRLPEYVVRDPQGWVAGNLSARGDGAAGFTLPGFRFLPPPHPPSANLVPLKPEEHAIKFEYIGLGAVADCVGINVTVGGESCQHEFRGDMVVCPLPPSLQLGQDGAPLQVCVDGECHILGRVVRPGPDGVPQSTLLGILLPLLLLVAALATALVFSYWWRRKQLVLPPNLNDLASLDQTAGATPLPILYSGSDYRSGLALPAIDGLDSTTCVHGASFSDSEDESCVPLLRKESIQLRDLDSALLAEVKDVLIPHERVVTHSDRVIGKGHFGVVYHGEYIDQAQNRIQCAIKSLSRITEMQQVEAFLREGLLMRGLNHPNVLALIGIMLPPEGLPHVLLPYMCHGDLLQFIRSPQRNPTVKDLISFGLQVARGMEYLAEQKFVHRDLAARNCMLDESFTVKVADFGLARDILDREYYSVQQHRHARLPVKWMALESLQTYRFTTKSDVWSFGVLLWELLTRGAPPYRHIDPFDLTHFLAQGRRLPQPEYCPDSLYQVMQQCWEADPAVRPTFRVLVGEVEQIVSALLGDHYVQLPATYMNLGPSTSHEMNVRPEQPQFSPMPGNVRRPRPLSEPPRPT

IRAK4 = target: T2, IRAK4 (Homo sapiens, UniProt Q9NWZ3)
T2 sequence (Q9NWZ3 1-460): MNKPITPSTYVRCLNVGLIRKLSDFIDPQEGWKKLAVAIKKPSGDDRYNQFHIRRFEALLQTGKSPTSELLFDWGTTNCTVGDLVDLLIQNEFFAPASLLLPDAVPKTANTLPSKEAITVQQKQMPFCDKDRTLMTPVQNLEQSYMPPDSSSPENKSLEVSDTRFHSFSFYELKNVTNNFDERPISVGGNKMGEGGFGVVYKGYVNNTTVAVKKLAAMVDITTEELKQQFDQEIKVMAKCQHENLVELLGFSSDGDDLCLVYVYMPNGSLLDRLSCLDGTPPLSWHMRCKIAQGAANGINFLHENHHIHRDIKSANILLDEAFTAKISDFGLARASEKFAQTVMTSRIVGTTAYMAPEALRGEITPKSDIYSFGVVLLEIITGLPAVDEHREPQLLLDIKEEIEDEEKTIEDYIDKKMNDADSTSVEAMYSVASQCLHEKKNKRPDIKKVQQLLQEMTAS

BRAF = BRAF (Homo sapiens, UniProt P15056)
BRAF, sequence (P15056 whole entry): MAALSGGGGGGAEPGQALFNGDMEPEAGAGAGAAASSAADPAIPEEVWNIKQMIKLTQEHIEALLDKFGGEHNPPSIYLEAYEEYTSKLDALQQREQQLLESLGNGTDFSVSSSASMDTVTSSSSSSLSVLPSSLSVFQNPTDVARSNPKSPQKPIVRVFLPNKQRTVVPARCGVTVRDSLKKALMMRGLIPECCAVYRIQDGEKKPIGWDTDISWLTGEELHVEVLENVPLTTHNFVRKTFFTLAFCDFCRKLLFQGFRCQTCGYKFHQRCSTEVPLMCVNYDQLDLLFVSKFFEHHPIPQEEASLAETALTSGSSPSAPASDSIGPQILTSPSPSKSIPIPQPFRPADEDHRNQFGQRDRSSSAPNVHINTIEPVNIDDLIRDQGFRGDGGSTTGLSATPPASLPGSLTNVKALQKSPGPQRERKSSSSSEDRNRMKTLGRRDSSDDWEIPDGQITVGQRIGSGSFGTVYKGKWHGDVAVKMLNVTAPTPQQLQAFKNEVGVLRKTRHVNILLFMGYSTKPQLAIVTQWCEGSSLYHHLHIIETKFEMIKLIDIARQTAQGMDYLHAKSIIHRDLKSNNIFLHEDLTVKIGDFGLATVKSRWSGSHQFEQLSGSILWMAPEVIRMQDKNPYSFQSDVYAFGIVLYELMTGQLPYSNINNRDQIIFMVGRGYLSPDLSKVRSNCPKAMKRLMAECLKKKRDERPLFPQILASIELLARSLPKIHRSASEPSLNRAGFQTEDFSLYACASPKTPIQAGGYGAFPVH

CDKL3 = CDKL3 (Homo sapiens, UniProt Q8IVW4)
GSK3B = GSK3B (Homo sapiens, UniProt P49841)
[3] = target: T3, RSK1(Kin.Dom.1-N-terminal) (Homo sapiens, UniProt Q15418)
T3 construct: gene RPS6KA1; Kin.Dom.1-N-terminal

DCAMKL1 = target: T4, DCAMKL1 (Homo sapiens, UniProt O15075)
T4 construct: gene DCLK1
T4 sequence (O15075 1-740): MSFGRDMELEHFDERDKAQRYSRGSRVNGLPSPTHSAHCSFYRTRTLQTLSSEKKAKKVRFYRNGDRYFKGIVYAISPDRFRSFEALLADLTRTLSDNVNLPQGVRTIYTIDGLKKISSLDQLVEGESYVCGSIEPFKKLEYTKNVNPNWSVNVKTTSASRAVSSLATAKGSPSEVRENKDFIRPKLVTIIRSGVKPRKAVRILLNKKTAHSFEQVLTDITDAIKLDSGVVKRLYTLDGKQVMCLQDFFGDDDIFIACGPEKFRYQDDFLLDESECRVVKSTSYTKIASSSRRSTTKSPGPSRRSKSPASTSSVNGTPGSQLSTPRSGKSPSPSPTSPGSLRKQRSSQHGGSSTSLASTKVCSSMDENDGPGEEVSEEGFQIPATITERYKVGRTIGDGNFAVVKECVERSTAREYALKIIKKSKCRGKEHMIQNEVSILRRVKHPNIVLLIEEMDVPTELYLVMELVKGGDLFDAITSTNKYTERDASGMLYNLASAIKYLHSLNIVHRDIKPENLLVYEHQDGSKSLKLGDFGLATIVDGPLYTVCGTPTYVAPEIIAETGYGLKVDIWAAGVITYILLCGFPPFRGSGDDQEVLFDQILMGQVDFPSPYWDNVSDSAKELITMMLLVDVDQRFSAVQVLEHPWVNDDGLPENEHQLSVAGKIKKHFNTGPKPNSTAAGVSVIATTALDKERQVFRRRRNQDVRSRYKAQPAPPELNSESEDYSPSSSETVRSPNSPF

[4] = target: T5, RSK3(Kin.Dom.2-C-terminal) (Homo sapiens, UniProt Q15349)
T5 construct: gene RPS6KA2; Kin.Dom.2-C-terminal

HIPK1 = HIPK1 (Homo sapiens, UniProt Q86Z02)
HIPK1, sequence (Q86Z02 whole entry): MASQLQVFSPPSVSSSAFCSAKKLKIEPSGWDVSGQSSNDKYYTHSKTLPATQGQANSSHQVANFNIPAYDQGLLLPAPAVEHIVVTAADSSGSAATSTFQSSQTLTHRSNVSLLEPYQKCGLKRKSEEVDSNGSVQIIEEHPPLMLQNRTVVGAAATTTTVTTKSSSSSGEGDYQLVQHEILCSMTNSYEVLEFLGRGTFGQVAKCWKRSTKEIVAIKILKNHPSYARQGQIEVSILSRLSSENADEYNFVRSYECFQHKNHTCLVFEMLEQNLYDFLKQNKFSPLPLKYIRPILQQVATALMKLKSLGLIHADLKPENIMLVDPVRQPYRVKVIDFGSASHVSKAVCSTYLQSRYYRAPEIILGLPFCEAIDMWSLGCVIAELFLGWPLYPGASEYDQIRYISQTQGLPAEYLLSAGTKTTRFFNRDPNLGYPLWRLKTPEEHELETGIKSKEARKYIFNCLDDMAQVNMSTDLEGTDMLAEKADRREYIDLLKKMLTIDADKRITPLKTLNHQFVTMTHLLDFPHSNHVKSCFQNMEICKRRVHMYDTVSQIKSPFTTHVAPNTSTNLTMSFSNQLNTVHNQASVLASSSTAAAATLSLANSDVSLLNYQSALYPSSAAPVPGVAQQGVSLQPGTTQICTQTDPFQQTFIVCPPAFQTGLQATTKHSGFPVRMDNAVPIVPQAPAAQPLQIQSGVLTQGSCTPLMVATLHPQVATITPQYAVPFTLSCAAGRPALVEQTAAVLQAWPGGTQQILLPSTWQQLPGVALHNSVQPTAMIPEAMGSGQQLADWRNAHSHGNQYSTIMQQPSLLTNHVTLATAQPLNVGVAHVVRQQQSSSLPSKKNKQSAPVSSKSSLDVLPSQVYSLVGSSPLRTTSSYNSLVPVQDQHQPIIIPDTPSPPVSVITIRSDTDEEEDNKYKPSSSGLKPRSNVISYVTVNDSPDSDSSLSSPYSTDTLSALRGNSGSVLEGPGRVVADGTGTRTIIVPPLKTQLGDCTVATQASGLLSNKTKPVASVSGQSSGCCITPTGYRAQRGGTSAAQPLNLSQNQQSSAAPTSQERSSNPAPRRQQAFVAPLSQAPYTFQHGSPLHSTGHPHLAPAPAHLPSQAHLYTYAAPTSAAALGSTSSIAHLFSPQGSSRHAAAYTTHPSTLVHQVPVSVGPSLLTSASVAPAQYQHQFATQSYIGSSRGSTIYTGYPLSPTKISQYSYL

[5] = read-out: Olaparib / %Ctrl @ 10000nM
[6] = read-out: Talazoparib (BMN 673) / %Ctrl @ 10000nM
[7] = read-out: Rucaparib / %Ctrl @ 10000nM, binding competition, % of control
[8] = read-out: Niraparib (MK-4827) / %Ctrl @ 10000nM

- percent of control binding at 10 µM [1, 5]: 82%
- percent of control binding at 10 µM [2, 5]: 84%
- percent of control binding at 10 µM (NEK6; [5]): 96%
- percent of control binding at 10 µM (MST1R; [5]): 84%
- percent of control binding at 10 µM (IRAK4; [5]): 88%
- percent of control binding at 10 µM (BRAF; [5]): 76%
- percent of control binding at 10 µM (CDKL3; [5]): 100%
- percent of control binding at 10 µM (GSK3B; [5]): 98%
- percent of control binding at 10 µM [3, 5]: 94%
- percent of control binding at 10 µM (DCAMKL1; [5]): 100%
- percent of control binding at 10 µM [4, 5]: 70%
- percent of control binding at 10 µM (HIPK1; [5]): 87%
SMILES: O=C(c1cc(Cc2n[nH]c(=O)c3ccccc23)ccc1F)N1CCN(C(=O)C2CC2)CC1 [Olaparib]

- percent of control binding at 10 µM [1, 6]: 96%
- percent of control binding at 10 µM [2, 6]: 94%
- percent of control binding at 10 µM (NEK6; [6]): 99%
- percent of control binding at 10 µM (MST1R; [6]): 99%
- percent of control binding at 10 µM (IRAK4; [6]): 85%
- percent of control binding at 10 µM (BRAF; [6]): 67%
- percent of control binding at 10 µM (CDKL3; [6]): 97%
- percent of control binding at 10 µM (GSK3B; [6]): 100%
- percent of control binding at 10 µM [3, 6]: 100%
- percent of control binding at 10 µM (DCAMKL1; [6]): 90%
- percent of control binding at 10 µM [4, 6]: 100%
- percent of control binding at 10 µM (HIPK1; [6]): 100%
SMILES: Cn1ncnc1[C@H]1c2n[nH]c(=O)c3cc(F)cc(c23)N[C@@H]1c1ccc(F)cc1 [Talazoparib]

- percent of control binding at 10 µM [1, 7]: 98%
- percent of control binding at 10 µM [2, 7]: 66%
- percent of control binding at 10 µM (NEK6; [7]): 89%
- percent of control binding at 10 µM (MST1R; [7]): 91%
- percent of control binding at 10 µM (IRAK4; [7]): 81%
- percent of control binding at 10 µM (BRAF; [7]): 66%
- percent of control binding at 10 µM (CDKL3; [7]): 100%
- percent of control binding at 10 µM (GSK3B; [7]): 89%
- percent of control binding at 10 µM [3, 7]: 91%
- percent of control binding at 10 µM (DCAMKL1; [7]): 78%
- percent of control binding at 10 µM [4, 7]: 67%
- percent of control binding at 10 µM (HIPK1; [7]): 5.4%
SMILES: CNCc1ccc(-c2[nH]c3cc(F)cc4c3c2CCNC4=O)cc1 [Rucaparib]

SMILES: NC(=O)c1cccc2cn(-c3ccc([C@@H]4CCCNC4)cc3)nc12 [Niraparib]
- percent of control binding at 10 µM [1, 8]: 65%
- percent of control binding at 10 µM [2, 8]: 96%
- percent of control binding at 10 µM (NEK6; [8]): 100%
- percent of control binding at 10 µM (MST1R; [8]): 88%
- percent of control binding at 10 µM (IRAK4; [8]): 99%
- percent of control binding at 10 µM (BRAF; [8]): 95%
- percent of control binding at 10 µM (CDKL3; [8]): 64%
- percent of control binding at 10 µM (GSK3B; [8]): 88%
- percent of control binding at 10 µM [3, 8]: 98%
- percent of control binding at 10 µM (DCAMKL1; [8]): 89%
- percent of control binding at 10 µM [4, 8]: 93%
- percent of control binding at 10 µM (HIPK1; [8]): 0.95%
